Measurements published in publication PMC6848746 (Psychopharmacology, 2019).
Where two headings read alike, the source gives them in different places.

Columns and labels:
NET [1] = test: NET-mediated release of [3H]MPP+ from rat brain synaptosomes; type: biochemical; conditions: relative to SERT, synaptosomal release
D2 = D2 (Homo sapiens, UniProt P14416); test: Radioligand binding
α1D = molecular target: T1, α1D (Homo sapiens, UniProt P25100); test: Radioligand binding
T1 sequence (P25100 1-572): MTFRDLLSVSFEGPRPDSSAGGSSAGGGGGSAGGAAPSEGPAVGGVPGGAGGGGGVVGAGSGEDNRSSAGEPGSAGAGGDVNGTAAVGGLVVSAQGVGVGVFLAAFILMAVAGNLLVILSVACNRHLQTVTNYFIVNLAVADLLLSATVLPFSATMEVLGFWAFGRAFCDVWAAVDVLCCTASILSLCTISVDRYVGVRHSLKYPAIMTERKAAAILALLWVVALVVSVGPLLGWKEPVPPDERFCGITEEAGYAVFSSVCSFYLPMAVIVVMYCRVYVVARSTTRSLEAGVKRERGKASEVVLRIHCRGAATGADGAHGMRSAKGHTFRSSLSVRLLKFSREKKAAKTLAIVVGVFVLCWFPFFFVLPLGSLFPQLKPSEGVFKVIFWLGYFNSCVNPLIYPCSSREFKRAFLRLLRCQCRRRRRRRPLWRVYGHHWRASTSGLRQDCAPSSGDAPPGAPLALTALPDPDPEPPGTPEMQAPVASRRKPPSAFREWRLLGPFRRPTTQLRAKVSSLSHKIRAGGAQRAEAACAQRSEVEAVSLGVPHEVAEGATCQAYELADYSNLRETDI

NET [2] = conditions: synaptosomal uptake assay; ref Johnson et al. (1991a); cited from earlier work
DAT [3] = conditions: synaptosomal uptake assay; ref Johnson et al. (1991a); cited from earlier work
rats = conditions: cited from earlier work
SERT = SERT (Homo sapiens, UniProt P31645); conditions: HEK cells expressing cloned transporters, cited from earlier work; for release of preloaded [3H]5-HT: at 100 μM, ref Simmler et al. 2014b, Luethi et al. 2017
5-HT receptors = test: Primary binding assay at 10 μM, 5-HT receptors; set-up: species or system Human
NET [4] = molecular target: NET (Homo sapiens, UniProt P23975); conditions: HEK cells expressing cloned transporters, cited from earlier work; for release of preloaded [3H]NE: at 100 μM, ref Simmler et al. 2014b, Luethi et al. 2017
DAT [5] = molecular target: DAT (Homo sapiens, UniProt Q01959); conditions: HEK cells expressing cloned transporters, cited from earlier work; for release of preloaded [3H]DA: at 100 μM, ref Simmler et al. 2014b, Luethi et al. 2017
Sequence of DAT (Homo sapiens, UniProt Q01959) (Q01959 whole entry): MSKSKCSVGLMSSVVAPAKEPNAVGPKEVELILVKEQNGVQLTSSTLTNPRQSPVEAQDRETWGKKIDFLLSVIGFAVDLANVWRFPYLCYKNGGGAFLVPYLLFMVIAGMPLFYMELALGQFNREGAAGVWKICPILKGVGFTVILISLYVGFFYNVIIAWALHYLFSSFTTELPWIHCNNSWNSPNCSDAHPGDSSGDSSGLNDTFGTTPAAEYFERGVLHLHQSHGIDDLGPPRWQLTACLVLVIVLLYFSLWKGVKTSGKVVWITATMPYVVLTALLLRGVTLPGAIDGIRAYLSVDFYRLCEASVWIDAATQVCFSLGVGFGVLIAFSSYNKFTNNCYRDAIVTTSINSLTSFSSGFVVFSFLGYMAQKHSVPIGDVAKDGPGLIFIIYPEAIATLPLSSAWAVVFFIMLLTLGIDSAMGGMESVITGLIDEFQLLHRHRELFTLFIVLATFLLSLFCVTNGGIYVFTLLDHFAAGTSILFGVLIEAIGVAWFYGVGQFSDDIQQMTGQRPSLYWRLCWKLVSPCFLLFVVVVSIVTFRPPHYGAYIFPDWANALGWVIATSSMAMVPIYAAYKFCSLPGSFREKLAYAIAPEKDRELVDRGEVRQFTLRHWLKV

Sequence of NET (Homo sapiens, UniProt P23975) (P23975 whole entry): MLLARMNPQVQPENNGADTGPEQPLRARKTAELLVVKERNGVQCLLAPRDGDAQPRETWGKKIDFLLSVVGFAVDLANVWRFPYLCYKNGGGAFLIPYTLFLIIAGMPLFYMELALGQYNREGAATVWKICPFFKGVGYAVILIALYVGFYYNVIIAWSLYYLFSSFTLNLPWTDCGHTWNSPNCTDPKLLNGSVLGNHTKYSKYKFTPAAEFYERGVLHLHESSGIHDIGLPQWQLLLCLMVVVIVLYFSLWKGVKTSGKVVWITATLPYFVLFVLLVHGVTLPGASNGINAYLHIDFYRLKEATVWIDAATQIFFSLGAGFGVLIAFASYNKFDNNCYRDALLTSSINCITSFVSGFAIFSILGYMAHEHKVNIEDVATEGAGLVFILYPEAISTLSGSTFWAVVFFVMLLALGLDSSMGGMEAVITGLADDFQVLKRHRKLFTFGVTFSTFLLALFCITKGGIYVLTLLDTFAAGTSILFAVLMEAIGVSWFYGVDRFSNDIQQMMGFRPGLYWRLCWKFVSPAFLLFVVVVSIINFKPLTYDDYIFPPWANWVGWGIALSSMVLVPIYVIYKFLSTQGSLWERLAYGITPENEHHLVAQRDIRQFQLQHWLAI
Sequence of D2 (P14416 whole entry): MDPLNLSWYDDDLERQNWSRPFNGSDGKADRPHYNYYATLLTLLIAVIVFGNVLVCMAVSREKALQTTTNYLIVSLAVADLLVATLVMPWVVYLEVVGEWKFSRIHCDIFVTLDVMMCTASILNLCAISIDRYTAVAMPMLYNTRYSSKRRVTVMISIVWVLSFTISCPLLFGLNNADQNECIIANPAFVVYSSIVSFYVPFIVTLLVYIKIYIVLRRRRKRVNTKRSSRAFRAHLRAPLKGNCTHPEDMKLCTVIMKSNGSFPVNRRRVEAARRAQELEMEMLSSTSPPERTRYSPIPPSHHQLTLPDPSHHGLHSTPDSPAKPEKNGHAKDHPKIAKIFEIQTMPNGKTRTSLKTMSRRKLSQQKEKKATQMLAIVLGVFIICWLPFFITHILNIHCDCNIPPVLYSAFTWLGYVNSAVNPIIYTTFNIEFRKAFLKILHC
Sequence of SERT (P31645 whole entry): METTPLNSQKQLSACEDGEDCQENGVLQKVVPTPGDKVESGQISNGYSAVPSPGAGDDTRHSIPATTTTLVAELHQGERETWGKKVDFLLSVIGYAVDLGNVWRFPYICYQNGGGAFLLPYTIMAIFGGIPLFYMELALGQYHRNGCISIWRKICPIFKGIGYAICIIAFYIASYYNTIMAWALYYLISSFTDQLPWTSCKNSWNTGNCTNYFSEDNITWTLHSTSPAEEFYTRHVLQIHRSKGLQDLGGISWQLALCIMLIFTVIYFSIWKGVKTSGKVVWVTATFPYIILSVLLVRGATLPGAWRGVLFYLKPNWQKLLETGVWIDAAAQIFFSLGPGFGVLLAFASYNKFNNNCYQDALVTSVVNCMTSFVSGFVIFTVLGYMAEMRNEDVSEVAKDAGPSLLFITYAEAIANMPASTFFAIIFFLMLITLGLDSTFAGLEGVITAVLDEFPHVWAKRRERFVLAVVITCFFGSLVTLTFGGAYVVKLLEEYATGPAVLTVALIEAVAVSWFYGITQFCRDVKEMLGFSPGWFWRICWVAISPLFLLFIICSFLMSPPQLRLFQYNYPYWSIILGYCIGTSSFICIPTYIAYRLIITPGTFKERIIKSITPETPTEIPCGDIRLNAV

Structure (SMILES)	fold lower release potency at NET (NET [1])	Ki (D2)	Ki (α1D)	fold difference [3H]5-HT uptake IC50 vs [3H]NE uptake IC50 (NET [2])	fold difference [3H]5-HT uptake IC50 vs [3H]DA uptake IC50 (DAT [3])	place conditioning effect (rats; ref Marona-Lewicka et al. 1996)	release of preloaded [3H]5-HT (SERT)	displacement at 5-HT receptors (5-HT receptors)	release of preloaded [3H]NE (NET [4])	release of preloaded [3H]DA (DAT [5])	place conditioning effect (rats; ref Gatch et al. 2016)	EC50 (NET [4]; read-out: release of preloaded [3H]NE EC50, ref Eshleman et al. 2017)	EC50 (DAT [5]; read-out: release of preloaded [3H]DA EC50, ref Eshleman et al. 2017)	selectivity for 5-HT vs. DA release (SERT; ref Eshleman et al. 2017)	EC50 (SERT; read-out: release of preloaded [3H]5-HT EC50, ref Eshleman et al. 2017)
COc1ccc2c(c1)CC(N)C2 (stereo not drawn) [5-MeO-AI, 5-methoxy-2-aminoindan]	6 fold	> 10 µM	> 10 µM												
COc1cc2c(cc1C)CC(N)C2 (stereo not drawn) [MMAI, 5-methoxy-6-methyl-2-aminoindan]	100 fold	> 10 µM	> 10 µM	55 fold	93 fold	conditioned place aversion	released								
NC1Cc2ccccc2C1 [2-AI, 2-aminoindan]		> 10 µM	> 10 µM					< 50%	induced the release	induced the release					
NC1Cc2cc3c(cc2C1)OCO3 [MDAI, 5,6-methylenedioxy-2-aminoindan]		> 10 µM	> 10 µM		10 fold		released	< 50%	released	not affected	conditioned place preference	0.57 µM	24 µM	~ 10 fold	2.9 µM
